# Results taken from patent US20170037028A1 (BAYER PHARMA AKTIENGESELLSCHAFT, priority 2013, published 2017).
# What was measured:
# Format in all cases: cell-based
# GLUT1 [1] = molecular target: T1, GLUT1 (Homo sapiens, UniProt P11166); assay: 2-deoxy-D-glucose (3H) uptake assay, GLUT1 inhibition in cell lines; details: H460 cell line; 3H-2-deoxy-D-glucose uptake; read-out: IC50 regarding GLUT1 inhibition
# T1 sequence (P11166 1-492): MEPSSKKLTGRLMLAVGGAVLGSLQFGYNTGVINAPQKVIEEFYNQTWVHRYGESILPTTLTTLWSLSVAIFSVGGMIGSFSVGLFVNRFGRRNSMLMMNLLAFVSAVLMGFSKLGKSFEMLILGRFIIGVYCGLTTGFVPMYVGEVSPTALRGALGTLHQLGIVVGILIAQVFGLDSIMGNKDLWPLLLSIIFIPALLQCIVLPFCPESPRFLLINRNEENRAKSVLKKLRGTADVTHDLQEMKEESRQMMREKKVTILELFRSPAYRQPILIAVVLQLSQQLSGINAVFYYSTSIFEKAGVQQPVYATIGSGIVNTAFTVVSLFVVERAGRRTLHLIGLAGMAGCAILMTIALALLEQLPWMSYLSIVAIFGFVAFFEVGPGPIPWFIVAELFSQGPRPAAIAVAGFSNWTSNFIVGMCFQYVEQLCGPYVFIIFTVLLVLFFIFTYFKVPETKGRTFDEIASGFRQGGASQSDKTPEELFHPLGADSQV
# Method: Cells (e.g. H460 or CHO-K1) were cultured under standard conditions. 10000 cells per well were seeded in clear 96 well tissue culture isoplate plates and cultured overnight (PerkinElmer, 1450-516) under standard conditions. Culture medium was removed and cells were washed two times with 100 μL KRP buffer and then incubated for 45 minutes at 37° C. (KRP buffer: 10 mM sodium hydrogen phosphate, 130 mM sodium chloride, 5 mM potassium chloride, 1.3 mM magnesium sulfate, 1.3 mM calcium chloride (pH 7.5), 50 mM HEPES (pH 7.5), 4.7 mM potassium chloride, 1.25 mM magnesium sulfate, 1.25 mM calcium chloride) each. KRP wash buffer was removed and compound 126 (diluted in KRP buffer) was added and incubated for 30 minutes at 37° C. 200 nM radioligand (radioligand 2[1,2] 3H-Deoxy D-Glucose in KRP buffer) were added and incubated for 5 minutes at room temperature. The supernatant was removed and cells were washed with 100 μL ice-cold KRP for two times each. 25 μL of Lysis buffer (1% Triton-X, 0.5N sodium hydroxide) were added and incubated at room temperature for 5 minutes. 75 μL scintillation solution (Microscint-20, PerkinElmer) were added and the plates were shaken for 1 minute. The plates were incubated for 3 h at room temperature and the counts were determined by using a Wallace MicroBeta counter (60 seconds per well).
# GLUT2 = molecular target: T2, GLUT2 (Homo sapiens, UniProt P11168); assay: Indirect measurement of GLUT2 activity by quantification of intracellular ATP levels (fructose induced ATP increase); details: 10 mM fructose, 1 μM Rotenone, 15 min; CellTiter-Glo ATP readout; read-out: IC50 regarding fructose induced ATP increase (GLUT2 inhibition)
# T2 construct: host or cells: DLD1 or CHO-K1
# T2 sequence (P11168 1-524): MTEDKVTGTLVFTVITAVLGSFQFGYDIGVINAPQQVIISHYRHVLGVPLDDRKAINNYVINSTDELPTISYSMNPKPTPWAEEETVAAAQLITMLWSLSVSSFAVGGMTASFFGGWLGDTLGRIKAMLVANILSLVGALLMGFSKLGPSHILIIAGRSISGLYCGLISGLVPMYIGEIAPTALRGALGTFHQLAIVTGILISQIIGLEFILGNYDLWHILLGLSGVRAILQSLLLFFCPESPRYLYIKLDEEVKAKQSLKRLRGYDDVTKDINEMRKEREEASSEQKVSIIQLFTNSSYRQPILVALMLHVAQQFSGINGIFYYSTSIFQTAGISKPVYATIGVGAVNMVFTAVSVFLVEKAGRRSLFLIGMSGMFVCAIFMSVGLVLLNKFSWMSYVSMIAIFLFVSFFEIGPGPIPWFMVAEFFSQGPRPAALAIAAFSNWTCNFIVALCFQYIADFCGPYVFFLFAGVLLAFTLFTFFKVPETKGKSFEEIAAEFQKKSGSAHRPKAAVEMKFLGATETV
# Source text: Indirect Measurement of GLUT1 and GLUT2 Activity by Quantification of Intracellular ATP Levels
# It is well known that a combination of small-molecule inhibitors of mitochondrial electron transport chain and glucose catabolism synergistically suppress ATP production and impair cellular viability (Ulanovskaya et al., 2008, 2011; Liu, et al. 2001). We therefore used DLD1 or CHO-K1 cells in combination with an oxidative phosphorylation inhibitor to identify GLUT1 and GLUT2 inhibitors. Cell lines were maintained in DMEM medium supplemented with 10% FCS and 1% Penicillin-Streptomycin solution and 2% Glutamax. The cells were treated with trypsin and seeded into 384 plates at a density of 4000 cells/well. The cells were then cultured overnight in glucose free media containing 1% FCS to reduce intracellular ATP levels. […] The CellTiter-Glo® Luminescent Cell Viability Assay from Promega was then used to measure ATP Levels.
# GLUT1 [2] = molecular target: T1, GLUT1; assay: Indirect measurement of GLUT1 activity by quantification of intracellular ATP levels (glucose induced ATP increase); design: endogenous in cells; host or cells: DLD1 or CHO-K1; details: read-out: IC50 regarding glucose induced ATP increase (GLUT1 inhibition)
# Procedure, shortened: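 Intracellular ATP was measured by CellTiter-Glo luminescence as an indirect readout of transport: glucose-driven for GLUT1, fructose-driven for GLUT2. DLD1 or CHO-K1 cells were used alongside an oxidative phosphorylation inhibitor. Beforehand, cells were held overnight in glucose-free 1% FCS medium to deplete ATP.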
structure (smiles),measurement,setting,value
"Cc1c(NC(=O)c2cc(C(N)=O)nc3ccccc23)c(C(F)(F)F)nn1Cc1ccc(C#N)cc1 [Example 126, N^4-[1-(4-cyanobenzyl)-5-methyl-3-(trifluoromethyl)-1H-pyrazol-4-yl]quinoline-2,4-dicarboxamide]",IC50,GLUT1 [1],15.4 nM
same,IC50,GLUT2,85400 nM
same,IC50,GLUT1 [2],4.7 nM
